One test addresses T1, dopamine D-2 receptor (Rattus norvegicus, UniProt P61169).
T1 construct: from tissue; host or cells: homogenized limbic brain tissue
As to the kind of experiment: Dopamine D-2 receptor binding ([3H]-spiroperidol, homogenized limbic brain tissue). As for the experimental part:
High affinity for the dopamine D-2 receptor was established by the standard experimental test procedure of Fields et al., Brain Res., 136, 578 (1977) and Yamamura et al., eds. Neutrotransmitter Receptor Binding, Raven Press, N.Y. (1978) wherein homogenized limbic brain tissue is incubated with ^3 H-spiroperidol and various concentrations of test compound, filtered and washed and shaken with Hydrofluor scintillation cocktail (National Diagnostics) and counted in a Packard 460 CD scintillation counter.

The target in test [1] is T2, 5-HT1A serotonin receptor (Rattus norvegicus, UniProt P19327).
T2 sequence (P19327 1-422): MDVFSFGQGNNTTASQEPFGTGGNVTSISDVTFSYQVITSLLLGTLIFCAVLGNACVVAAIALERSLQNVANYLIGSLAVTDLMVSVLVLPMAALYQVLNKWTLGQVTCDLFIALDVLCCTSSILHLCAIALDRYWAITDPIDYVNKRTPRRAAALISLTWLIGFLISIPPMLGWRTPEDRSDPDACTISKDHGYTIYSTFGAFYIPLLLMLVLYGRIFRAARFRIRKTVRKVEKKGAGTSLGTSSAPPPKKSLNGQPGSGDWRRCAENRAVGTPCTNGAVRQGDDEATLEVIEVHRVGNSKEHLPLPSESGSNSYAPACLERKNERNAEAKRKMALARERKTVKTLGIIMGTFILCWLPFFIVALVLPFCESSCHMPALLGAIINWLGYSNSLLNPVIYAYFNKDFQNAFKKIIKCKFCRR
Nature of the test: Serotonin 5-HT1A receptor binding (displacement of [3H]-8-OHDPAT). Further details: from tissue. The conditions noted are these: [3H]-8-OHDPAT displacement. From the text:
High affinity for the serotonin 5-HT1A receptor was established by testing the claimed compounds ability to displace [^3 H]-8-OHDPAT (dipropylaminotetralin) from the 5-HT1A serotonin receptor following the procedure of Hall et al., J. Neurochem. 44, 1685 (1985). […] The anxiolytic activity of buspirone is believed to be, at least partially, due to its 5-HT1A receptor affinity (Vander Maclen et al., Eur. J. Pharmacol. 1986, 129 (1-2), 133-130.

For test [2], the target named is T2, 5-HT1A serotonin receptor. To be noted: standard for anxiolytic activity; cited from earlier work.

Consider 7 compounds from patent US5036070A, “Polycyclic phenalkyl amines as psychotropic agents” (American Home Products Corporation, priority 1990, dated 1991).

T1 sequence (P61169 whole entry): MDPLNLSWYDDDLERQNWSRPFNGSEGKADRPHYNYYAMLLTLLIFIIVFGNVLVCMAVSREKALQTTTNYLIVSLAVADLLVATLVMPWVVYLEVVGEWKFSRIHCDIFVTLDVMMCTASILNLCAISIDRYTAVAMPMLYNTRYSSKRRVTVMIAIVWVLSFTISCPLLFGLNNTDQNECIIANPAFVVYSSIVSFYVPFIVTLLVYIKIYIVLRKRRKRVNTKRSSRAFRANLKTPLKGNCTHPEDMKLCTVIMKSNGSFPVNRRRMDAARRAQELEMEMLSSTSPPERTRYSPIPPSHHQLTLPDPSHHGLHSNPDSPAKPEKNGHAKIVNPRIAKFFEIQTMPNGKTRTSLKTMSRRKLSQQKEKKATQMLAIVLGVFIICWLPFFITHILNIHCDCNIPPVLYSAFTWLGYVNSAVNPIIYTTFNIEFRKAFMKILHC

Regarding `c1cnc(N2CCN(CCCOc3ccc4c(c3)CCC4)CC2)nc1` [Example 1], the inhibition (usually the change of the read-out against control, counted positive when it falls) at 1 µM on dopamine D-2 receptor is 85%; in test [1], 91%.

As to `Fc1ccc(C(c2ccc(F)cc2)N2CCN(CCCOc3ccc4c(c3)CCC4)CC2)cc1` [Example 2, 1-[4-[3-[(2,3-Dihydro-1H-indan-5-yl)oxy]propyl]-1-piperazinyl]bis(4-fluorophenyl)methane], 1 µM produced 43% inhibition in test [1].

Regarding `Clc1cncc(N2CCN(CCCOc3ccc4c(c3)CCC4)CC2)n1` [Example 3], the inhibition at 1 µM at dopamine D-2 receptor is 82%; in test [1] it was 48%.

`c1ccc2c(c1)OCC(CNCCCCOc1ccc3c(c1)CCC3)O2` (stereo not drawn) [Example 4, N-[4-[(2,3-Dihydro-1H-indan-5-yl)oxy]butyl]-2,3-dihydro-1,4-benzodioxan-2-methanamine]: the figures for the inhibition at 1 µM (at dopamine D-2 receptor; in test [1]) were 97% and 92%, respectively.

As for `c1ccc2c(c1)OCC(CNCCOc1ccc3c(c1)CCC3)O2` (stereo not drawn) [Example 5, N-[2-[(2,3-Dihydro-1H-indan-5-yl)oxy]ethyl]-2,3-dihydro-1,4-benzodioxan-2-methanamine], the figures for the inhibition at 1 µM (at dopamine D-2 receptor; in test [1]) were 100% and 76%, respectively.

As for `c1ccc2c(c1)OCC(CNCCCOc1ccc3c(c1)CCC3)O2` (stereo not drawn) [Example 6, N-[3-[(2,3-Dihydro-1H-indan-5-yl)oxy]propyl]-2,3-dihydro-1,4-benzodioxan-2-methanamine], the inhibition at 1 µM on dopamine D-2 receptor is 95%; in test [1], 99%.

With `O=C1CC2(CCCC2)CC(=O)N1CCCCN1CCN(c2ncccn2)CC1` [buspirone], in test [2], the “affinity for the 5-HT1A serotonin receptor subtype (in words)” value is listed as “potent affinity”.
